Counter-ions that a name gives are not always drawn. Like-named read-outs stand apart in the source and are kept apart here.
Columns and labels:
Format in all cases: in vivo
Hedyotis verticillata = assay: Field trial, herbicidal activity against Hedyotis verticillata in oil palm plantation; conditions: Scleromitrion verticillatum; for inhibition at 25 g/ha: read-out: Herbicidal activity (%), w. after appl., No. 11, dose 25 g of AS/ha; for inhibition at 50 g/ha: read-out: Herbicidal activity (%), w. after appl., No. 12, dose 50 g of AS/ha; for inhibition at 80 g/ha: read-out: Herbicidal activity (%), w. after appl., No. 13, dose 80 g of AS/ha
Description: (§1) In an oil palm plantation, the economically important tropical weed Hedyotis verticillata was grown on plots of the dimensions 2×5 m under natural outdoor conditions and treated with the herbicides A1.2, B1 and C1 or their mixtures in a tank mix under standard conditions using a plot sprayer, at a water application rate of 450 liters of water per hectare (over-the-top application to the weeds; plant density initially more than 95% ground coverage). At intervals of 1, 2, 3, 4, 5, 6, 7 and 8 weeks after the application, the herbicidal efficacy of the active compounds or active compound mixtures was evaluated visually on the basis of the treated plots, in comparison with untreated control plots. The damage to and development of all above-ground parts of the plants were recorded. Evaluation was carried out using a percentage scale (100% effect=all plants killed; 50% effect=50% of the plants and the green parts of the plants killed; 0% effect=no noticeable effect=like control plot). The evaluation values of in each case 4 plots were averaged.

Asystasia intrusa = assay: Field trial, herbicidal activity against Asystasia intrusa in rubber tree plantation; conditions: Asystasia intrusa, read-out: Activity (%), w. after appl., No. 2, dose 60 g of AS/ha
Description: as §1
In a rubber tree plantation, plots with the tropical weed Asystasia intrusa were grown under natural outdoor conditions (dimensions of the plots 2 x 5 m). The herbicides or their mixtures in a tank mix were applied under standard conditions (over-the-top application using a plot sprayer, water application rate 450 l/ha). In intervals of 4, 7, 13, 17 and 21 weeks after the application, the herbicidal efficacy of the active compounds or their mixtures was evaluated visually on the basis of the treated plots, in comparison with untreated control plots. The damage to and the development of all above-ground parts of the plants were recorded. Evaluation was carried out as described in Example 1.

Axonopus compressus = assay: Field trial, herbicidal activity against Axonopus compressus in rubber tree plantation; conditions: Axonopus compressus, read-out: Activity (%), w. after appl., No. 2, dose 60 g of AS/ha
Description: as §1
In a rubber tree plantation, plots with the tropical weed Axonopus compressus were grown under natural outdoor conditions (plot dimensions 2×5 m). The herbicides or their mixtures in a tank mix were applied under standard conditions using a plot spayer at a water application rate of 450 liters of water per hectare (over-the-top application). At intervals of 4, 7, 13, 17 and 21 weeks after the application, the herbicidal efficacy of the active compounds or active compound mixtures was evaluated visually on the basis of the treated plots, in comparison with untreated control plots. The damage to and development of all above-ground parts of the plants were recorded. Evaluation was carried out as described in Example 1.

[1] = system: Brachiaria mutica, Digitaria horizontalis, Panicum maximum, Echinochloa colona and Ageratum conyzoides; assay: Field trial, herbicidal activity against weeds in sugar cane plantation
Description: as §1, with “Evaluation was carried out using a percentage scale (100% effect=all plants killed; 50% effect=50% of the plants and the green parts of the plants killed; 0% effect=no noticeable effect=like control plot). The evaluation values of in each case 4 plots were averaged.” left out
In a sugar cane plantation, plots with the weeds Brachiaria mutica, Digitaria horizontalis, Panicum maximum, Echinochloa colona and Ageratum conyzoides were grown under natural outdoor conditions (dimensions of the plots 2×5 m). […] Four weeks after the application, the herbicidal efficacy of the active compounds or their mixtures was evaluated visually on the basis of the treated plots, in comparison with untreated control plots. The damage to and development of all above-ground parts of the plants were recorded. […]

## CP(=O)(O)CCC(N)C(=O)O (stereo not drawn) [A1.2, Glufosinate-monoammonium salt]
Hedyotis verticillata; 1 w. after appl.
  inhibition at 25 g/ha: 35%
  inhibition at 50 g/ha: 35%
  inhibition at 80 g/ha: 58%
Hedyotis verticillata; 2 w. after appl.
  inhibition at 25 g/ha: 28%
  inhibition at 50 g/ha: 25%
  inhibition at 80 g/ha: 45%
Hedyotis verticillata; 3 w. after appl.
  inhibition at 25 g/ha: 23%
  inhibition at 50 g/ha: 20%
  inhibition at 80 g/ha: 40%
Hedyotis verticillata; 4 w. after appl.
  inhibition at 25 g/ha: 20%
  inhibition at 50 g/ha: 20%
  inhibition at 80 g/ha: 40%
Hedyotis verticillata; 5 w. after appl.
  inhibition at 25 g/ha: 10%
  inhibition at 50 g/ha: 10%
  inhibition at 80 g/ha: 40%
Hedyotis verticillata; 6 w. after appl.
  inhibition at 25 g/ha: 10%
  inhibition at 50 g/ha: 10%
  inhibition at 80 g/ha: 30%
Hedyotis verticillata; 7 w. after appl.
  inhibition at 25 g/ha: 10%
  inhibition at 50 g/ha: 10%
  inhibition at 80 g/ha: 28%
Hedyotis verticillata; 8 w. after appl.
  inhibition at 25 g/ha: 0%
  inhibition at 50 g/ha: 0%
  inhibition at 80 g/ha: 8%
Asystasia intrusa; 4 w. after appl.
  inhibition at 60 g/ha: 23%
Asystasia intrusa; 7 w. after appl.
  inhibition at 60 g/ha: 5%
Asystasia intrusa; 13 w. after appl.
  inhibition at 60 g/ha: 0%
Asystasia intrusa; 17 w. after appl.
  inhibition at 60 g/ha: 0%
Asystasia intrusa; 21 w. after appl.
  inhibition at 60 g/ha: 0%
Axonopus compressus; 4 w. after appl.
  inhibition at 60 g/ha: 17%
Axonopus compressus; 7 w. after appl.
  inhibition at 60 g/ha: 10%
Axonopus compressus; 13 w. after appl.
  inhibition at 60 g/ha: 0%
Axonopus compressus; 17 w. after appl.
  inhibition at 60 g/ha: 0%
Axonopus compressus; 21 w. after appl.
  inhibition at 60 g/ha: 0%
[1]; 672 h, read-out: Herbicidal activity (%)
  inhibition at 300 g/ha: 72%
[1]; No. 2, dose 300 g of AS/ha, percent ground coverage, control plot has more than 95% weed coverage
  Weed coverage (%): 27%

— patent US6436874B1, “Synergistic herbicidal agents based on leaf herbicides containing phosphorus, imidazolinones and hormone weed killers” (priority 1998, dated 2002)
